The MIC is the smallest concentration in the dilution series that meets the test's criterion for growth inhibition.

In brackets after ≈: the same amount, converted by molar mass. Bounds are passed on as bounds.

The test system of this test is M. catarrhalis A894. As to the kind of experiment: Minimal inhibitory concentration (MIC), microdilution method in cation-adjusted Mueller-Hinton Broth (CLSI M7-A7). The test is classed as cell-based. To be noted: Moraxella catarrhalis, strain A894. The protocol:
Minimal inhibitory concentrations (MICs; mg/1) were determined in cation-adjusted Mueller-Hinton Broth by a microdilution method following the description given in “Methods for Dilution Antimicrobial Susceptibility Tests for Bacteria that Grow Aerobically”, Approved standard, 7th ed., Clinical and Laboratory Standards Institute (CLSI) Document M7-A7, Wayne, Pa., USA, 2006.
`O=C1CSc2ccc(N3C[C@@H](CCCN[C@H]4Cn5c(=O)cnc6ccc(F)c4c65)OC3=O)cc2N1` [Example 105, (R)-7-fluoro-6-{3-[(R)-2-oxo-3-(3-oxo-3,4-dihydro-2H-benzo[1,4]thiazin-6-yl)-oxazolidin-5-yl]-propylamino}-5,6-dihydro-pyrrolo[1,2,3-de]quinoxalin-3-one] showed an MIC of at most 0.031 µg/mL.
Next, `O=C1CSc2ccc(N3C[C@@H](CCCN[C@H]4Cn5c(=O)ccc6cccc4c65)OC3=O)cc2N1` [Example 109, (R)-1-{3-[(R)-2-oxo-3-(3-oxo-3,4-dihydro-2H-benzo[1,4]thiazin-6-yl)-oxazolidin-5-yl]-propylamino}-1,2-dihydro-pyrrolo[3,2,1-ij]quinolin-4-one]: at most 0.031 µg/mL; `COc1nc2ccc(F)c3c2n(c1=O)C[C@@H]3NCCC[C@@H]1CN(c2ccc3c(c2)NC(=O)CO3)C(=O)O1` [Example 111, (R)-7-fluoro-2-methoxy-6-{3-[(R)-2-oxo-3-(3-oxo-3,4-dihydro-2H-benzo[1,4]oxazin-6-yl)-oxazolidin-5-yl]-propylamino}-5,6-dihydro-pyrrolo[1,2,3-de]quinoxalin-3-one]: 0.125 µg/mL (≈ 0.245 µM).
The figure for `COc1nc2ccc(F)c3c2n(c1=O)C[C@@H]3NCCC[C@@H]1CN(c2ccc3c(c2)NC(=O)CS3)C(=O)O1` [Example 112, (R)-7-fluoro-2-methoxy-6-{3-[(R)-2-oxo-3-(3-oxo-3,4-dihydro-2H-benzo[1,4]thiazin-6-yl)-oxazolidin-5-yl]-propylamino}-5,6-dihydro-pyrrolo[1,2,3-de]quinoxalin-3-one] is at most 0.031 µg/mL; for `O=C1CSc2ccc(N3C[C@@H](CCCN[C@@H]4CN5C(=O)CNc6cccc4c65)OC3=O)cc2N1` [Example 114, (S)-6-{3-[(R)-2-oxo-3-(3-oxo-3,4-dihydro-2H-benzo[1,4]thiazin-6-yl)-oxazolidin-5-yl]-propylamino}-1,2,5,6-tetrahydro-pyrrolo[1,2,3-de]quinoxalin-3-one] it is at most 0.031 µg/mL; for `CCOC(=O)c1ccc2c3c1ccc(=O)n3C[C@@H]2NCCC[C@H]1CN(c2ccc3c(c2)NC(=O)CS3)C(=O)O1` [Example 119, (R)-4-oxo-1-{3-[(S)-2-oxo-3-(3-oxo-3,4-dihydro-2H-benzo[1,4]thiazin-6-yl)-oxazolidin-5-yl]-propylamino}-1,2-dihydro-4H-pyrrolo[3,2,1-ij]quinoline-7-carboxylic acid ethyl ester] it is at most 0.031 µg/mL.
In turn, `O=C1CSc2ccc(N3C[C@H](CCCN[C@H]4Cn5c(=O)ccc6c(CO)ccc4c65)OC3=O)cc2N1` [Example 120, (R)-7-hydroxymethyl-1-{3-[(S)-2-oxo-3-(3-oxo-3,4-dihydro-2H-benzo[1,4]thiazin-6-yl)-oxazolidin-5-yl]-propylamino}-1,2-dihydro-pyrrolo[3,2,1-ij]quinolin-4-one] returned a minimum inhibitory concentration (MIC) of 0.125 µg/mL (≈ 0.247 µM).
`Cl.O=C1CSc2ccc(N3C[C@H](CCCN[C@H]4Cn5c(=O)ccc6c(C(=O)O)ccc4c65)OC3=O)cc2N1` [Example 121, (R)-4-oxo-1-{3-[(S)-2-oxo-3-(3-oxo-3,4-dihydro-2H-benzo[1,4]thiazin-6-yl)-oxazolidin-5-yl]-propylamino}-1,2-dihydro-4H-pyrrolo[3,2,1-ij]quinoline-7-carboxylic acid hydrochloride] displayed an MIC of 0.125 µg/mL.
Molecule `CN(C)Cc1ccc2c3c1ccc(=O)n3C[C@@H]2NCCC[C@H]1CN(c2ccc3c(c2)NC(=O)CS3)C(=O)O1` [Example 122, (R)-7-dimethylaminomethyl-1-{3-[(S)-2-oxo-3-(3-oxo-3,4-dihydro-2H-benzo[1,4]thiazin-6-yl)-oxazolidin-5-yl]-propylamino}-1,2-dihydro-pyrrolo[3,2,1-ij]quinolin-4-one] registered an MIC of 0.5 µg/mL (≈ 0.937 µM).
`O=C1CSc2ccc(N3C[C@H](CCCN[C@H]4Cn5c(=O)ccc6c(CN7CCCC7)ccc4c65)OC3=O)cc2N1` [Example 123, (R)-1-{3-[(S)-2-oxo-3-(3-oxo-3,4-dihydro-2H-benzo[1,4]thiazin-6-yl)-oxazolidin-5-yl]-propylamino}-7-pyrrolidin-1-ylmethyl-1,2-dihydro-pyrrolo[3,2,1-ij]quinolin-4-one]: 0.125 µg/mL (≈ 0.223 µM) was the least that counted as inhibitory (MIC).
The molecule `O=C1CSc2ccc(N3C[C@@H](CCCN[C@H]4Cn5c(=O)ccc6ccc(F)c4c65)OC3=O)cc2N1` [Example 127, (R)-9-fluoro-1-{3-[(R)-2-oxo-3-(3-oxo-3,4-dihydro-2H-benzo[1,4]thiazin-6-yl)-oxazolidin-5-yl]-propylamino}-1,2-dihydro-pyrrolo[3,2,1-ij]quinolin-4-one] displayed an MIC of at most 0.031 µg/mL.
`O=C1CSc2ccc(N3C[C@@H](CCCN[C@@H]4Cn5c(=O)ccc6ccc(F)c4c65)OC3=O)cc2N1` [Example 128, (S)-9-fluoro-1-{3-[(R)-2-oxo-3-(3-oxo-3,4-dihydro-2H-benzo[1,4]thiazin-6-yl)-oxazolidin-5-yl]-propylamino}-1,2-dihydro-pyrrolo[3,2,1-ij]quinolin-4-one] yielded an MIC of at most 0.031 µg/mL.
Consider `O=C1CSc2ccc(N3C[C@H](CCCN[C@H]4Cn5c(=O)ccc6ccc(F)c4c65)OC3=O)cc2N1` [Example 129, (R)-9-fluoro-1-{3-[(S)-2-oxo-3-(3-oxo-3,4-dihydro-2H-benzo[1,4]thiazin-6-yl)-oxazolidin-5-yl]-propylamino}-1,2-dihydro-pyrrolo[3,2,1-ij]quinolin-4-one], for which the MIC was at most 0.031 µg/mL.
`O=C1CSc2ccc(N3C[C@H](CCCN[C@@H]4Cn5c(=O)ccc6ccc(F)c4c65)OC3=O)cc2N1` [Example 130, (S)-9-fluoro-1-{3-[(S)-2-oxo-3-(3-oxo-3,4-dihydro-2H-benzo[1,4]thiazin-6-yl)-oxazolidin-5-yl]-propylamino}-1,2-dihydro-pyrrolo[3,2,1-ij]quinolin-4-one] had an MIC of at most 0.031 µg/mL.
Molecule `O=C1COc2ccc(N3C[C@H](CCCN[C@H]4Cn5c(=O)cnc6ccc(F)c4c65)OC3=O)nc2N1` [Example 131, (R)-7-fluoro-6-{3-[(S)-2-oxo-3-(3-oxo-3,4-dihydro-2H-pyrido[3,2-b][1,4]oxazin-6-yl)-oxazolidin-5-yl]-propylamino}-5,6-dihydro-pyrrolo[1,2,3-de]quinoxalin-3-one] yielded a minimum inhibitory concentration (MIC) of at most 0.031 µg/mL.
The figure for `O=C1CSc2ccc(N3C[C@@H](CCCN[C@H]4Cn5c(=O)cnc6ccc(F)c4c65)OC3=O)nc2N1` [Example 132, (R)-7-fluoro-6-{3-[(R)-2-oxo-3-(3-oxo-3,4-dihydro-2H-pyrido[3,2-b][1,4]thiazin-6-yl)-oxazolidin-5-yl]-propylamino}-5,6-dihydro-pyrrolo[1,2,3-de]quinoxalin-3-one] is at most 0.031 µg/mL; for `O=C1CSc2ccc(N3C[C@H](CCCN[C@H]4Cn5c(=O)ccc6cccc4c65)OC3=O)cc2N1` [Example 133, (R)-1-{3-[(S)-2-oxo-3-(3-oxo-3,4-dihydro-2H-benzo[1,4]thiazin-6-yl)-oxazolidin-5-yl]-propylamino}-1,2-dihydro-pyrrolo[3,2,1-ij]quinolin-4-one] it is at most 0.031 µg/mL; for `O=C1COc2ccc(N3C[C@H](CCCN[C@H]4Cn5c(=O)ccc6cccc4c65)OC3=O)cc2N1` [Example 134, (R)-1-{3-[(S)-2-oxo-3-(3-oxo-3,4-dihydro-2H-benzo[1,4]oxazin-6-yl)-oxazolidin-5-yl]-propylamino}-1,2-dihydro-pyrrolo[3,2,1-ij]quinolin-4-one] it is at most 0.031 µg/mL.
Molecule `O=C1COc2ccc(N3C[C@H](CCCN[C@H]4Cn5c(=O)ccc6cccc4c65)OC3=O)nc2N1` [Example 135, (R)-1-{3-[(S)-2-oxo-3-(3-oxo-3,4-dihydro-2H-pyrido[3,2-b][1,4]oxazin-6-yl)-oxazolidin-5-yl]-propylamino}-1,2-dihydro-pyrrolo[3,2,1-ij]quinolin-4-one] had an MIC of at most 0.031 µg/mL.
Next, `O=C1CSc2ccc(N3C[C@H](CCCN[C@@H]4Cn5c(=O)ccc6cccc4c65)OC3=O)nc2N1` [Example 136, (S)-1-{3-[(S)-2-oxo-3-(3-oxo-3,4-dihydro-2H-pyrido[3,2-b][1,4]thiazin-6-yl)-oxazolidin-5-yl]-propylamino}-1,2-dihydro-pyrrolo[3,2,1-ij]quinolin-4-one]: at most 0.031 µg/mL; `O=C1CSc2ccc(N3C[C@@H](CCCN[C@@H]4Cn5c(=O)ccc6cccc4c65)OC3=O)nc2N1` [Example 137, (S)-1-{3-[(R)-2-oxo-3-(3-oxo-3,4-dihydro-2H-pyrido[3,2-b][1,4]thiazin-6-yl)-oxazolidin-5-yl]-propylamino}-1,2-dihydro-pyrrolo[3,2,1-ij]quinolin-4-one]: at most 0.031 µg/mL.
Molecule `O=C1CSc2ccc(N3C[C@@H](CCCN[C@H]4Cn5c(=O)ccc6ncc(F)c4c65)OC3=O)cc2N1` [Example 138, (R)-3-fluoro-4-{3-[(R)-2-oxo-3-(3-oxo-3,4-dihydro-2H-benzo[1,4]thiazin-6-yl)-oxazolidin-5-yl]-propylamino}-4,5-dihydro-pyrrolo[3,2,1-de][1,5]naphthyridin-7-one] came in with an MIC of at most 0.031 µg/mL.
In turn, `O=C1CSc2ccc(N3C[C@H](CCCN[C@H]4Cn5c(=O)ccc6ncc(F)c4c65)OC3=O)cc2N1` [Example 139, (R)-3-fluoro-4-{3-[(S)-2-oxo-3-(3-oxo-3,4-dihydro-2H-benzo[1,4]thiazin-6-yl)-oxazolidin-5-yl]-propylamino}-4,5-dihydro-pyrrolo[3,2,1-de][1,5]naphthyridin-7-one] yielded an MIC of at most 0.031 µg/mL.
The molecule `O=C1COc2ccc(N3C[C@@H](CCCN[C@H]4Cn5c(=O)ccc6ncc(F)c4c65)OC3=O)cc2N1` [Example 140, (R)-3-fluoro-4-{3-[(R)-2-oxo-3-(3-oxo-3,4-dihydro-2H-benzo[1,4]oxazin-6-yl)-oxazolidin-5-yl]-propylamino}-4,5-dihydro-pyrrolo[3,2,1-de][1,5]naphthyridin-7-one] showed an MIC of at most 0.031 µg/mL.
`O=C1COc2ccc(N3C[C@H](CCCN[C@H]4Cn5c(=O)ccc6ncc(F)c4c65)OC3=O)cc2N1` [Example 141, (R)-3-fluoro-4-{3-[(S)-2-oxo-3-(3-oxo-3,4-dihydro-2H-benzo[1,4]oxazin-6-yl)-oxazolidin-5-yl]-propylamino}-4,5-dihydro-pyrrolo[3,2,1-de][1,5]naphthyridin-7-one] displayed an MIC of at most 0.031 µg/mL.

These data come from patent US9822114B2, “Tricyclic oxazolidinone antibiotic compounds” (Idorsia Pharmaceuticals Ltd, priority 2008, dated 2017).
